Measurements published in patent US20230287138A1, “PROTEIN-DRUG CONJUGATES COMPRISING CAMPTOTHECIN ANALOGS AND METHODS OF USE THEREOF” (Regneron Pharmaceuticals, Inc., priority 2022, published 2023).
Counter-ions that a name gives are not always drawn. Like-named read-outs stand apart in the source and are kept apart here.

Test system: HCT-15
Test: HCT-15 data of payloads and linker-payloads (EC50, with or without verapamil)
Format: cell-based
[1] = Homo sapiens, linker-payload, HCT-15 cells, read-out: HCT-15 EC50
[2] = Homo sapiens, payload, HCT-15 cells, no verapamil, read-out: HCT-15 EC50
[3] = payload, HCT-15 cells plus verapamil, read-out: HCT-15 + verapamil EC50

Structure (SMILES) | EC50 [2] [nM] | EC50 [3] [nM] | further results
CC[C@@]1(O)C(=O)OCc2c1cc1n(c2=O)Cc2c-1nc1cc(F)c(C)c3c1c2[C@@H](NC(=O)[C@H](CCC(=O)O)NC(=O)OCc1ccc(NC(=O)[C@H](CCCNC(N)=O)NC(=O)[C@@H](NC(=O)CCOCCOCCOCCOCCNC(=O)COC2C#CCCCCC2)C(C)C)cc1)CC3 (stereo partly drawn) [LP9, (4S)-4-{[({4-[(2S)-5-(carbamoylamino)-2-[(2S)-2-{1-[2-(cyclooct-2-yn-1-yloxy)acetamido]-3,6,9,12-tetraoxapentadecan-15-amido}-3-methylbutanamido]pentanamido]phenyl}methoxy)carbonyl]amino}-4-{[(10S,23S)-10-ethyl-18-fluoro-10-hydroxy-19-methyl-5,9-dioxo-8-oxa-4,15-diazahexacyclo[14.7.1.0^2,^14.0^4,^13.0^6,^11.0^20,^24]tetracosa-1,6(11),12,14,16,18,20(24)-heptaen-23-yl]carbamoyl}butanoic acid] | – | – | EC50 [1]: 722 nM
CC[C@@]1(O)C(=O)OCc2c1cc1n(c2=O)Cc2c-1nc1ccc(OC)cc1c2CN [P22, (19S)-10-(Aminomethyl)-19-ethyl-19-hydroxy-7-methoxy-17-oxa-3,13-diazapentacyclo[11.8.0.0^2,^11.0^4,^9.0^15,^20]henicosa-1(21),2,4,6,8,10,15(20)-heptaene-14,18-dione] | 31.9 | 40.5 | –
CC[C@@]1(O)C(=O)OCc2c1cc1n(c2=O)Cc2c-1nc1cc(F)c(C)c3c1c2[C@@H](NC(=O)[C@@H](N)CCCCNC(=O)OCc1ccc(NC(=O)[C@H](CCCNC(N)=O)NC(=O)[C@@H](NC(=O)CCOCCOCCOCCOCCNC(=O)COC2C#CCCCCC2)C(C)C)cc1)CC3 (stereo partly drawn) [LP11, {4-[(2S)-5-(carbamoylamino)-2-[(2S)-2-{1-[2-(cyclooct-2-yn-1-yloxy)acetamido]-3,6,9,12-tetraoxapentadecan-15-amido}-3-methylbutanamido]pentanamido]phenyl}methyl N-[(5S)-5-amino-5-{[(10S,23S)-10-ethyl-18-fluoro-10-hydroxy-19-methyl-5,9-dioxo-8-oxa-4,15-diazahexacyclo[14.7.1.0^2,^14.0^4,^13.0^6,^11.0^20,^24]tetracosa-1,6(11),12,14,16,18,20(24)-heptaen-23-yl]carbamoyl}pentyl]carbamate] | – | – | EC50 [1]: 208 nM
CC[C@@]1(O)C(=O)OCc2c1cc1n(c2=O)Cc2c-1nc1ccc(OC)cc1c2Cn1nnc2c1CCCCCC2OCC(=O)O (stereo partly drawn) [P27, 2-((1-(((S)-4-ethyl-4-hydroxy-9-methoxy-3,14-dioxo-3,4,12,14-tetrahydro-1H-pyrano[3′,4′:6,7]indolizino[1,2-b]quinolin-11-yl)methyl)-4,5,6,7,8,9-hexahydro-1H-cycloocta[d][1,2,3]triazol-4-yl)oxy)acetic acid] | 78.8 | – | –
CC[C@@]1(O)C(=O)OCc2c1cc1n(c2=O)Cc2c-1nc1ccc(OC)cc1c2CN(C)Cc1ccc(OC)cc1 [P25, (S)-4-ethyl-4-hydroxy-9-methoxy-11-(((4-methoxybenzyl)(methyl)amino)methyl)-1,12-dihydro-14H-pyrano[3′,4′:6,7]indolizino[1,2-b]quinoline-3,14(4H)-dione] | 46.8 | – | –
CCc1c2c(nc3ccc(O)cc13)-c1cc3c(c(=O)n1C2)COC(=O)[C@]3(O)CC [P16, 7-ethyl-10-hydroxycamptothecin, reference compound] | 6.11 | 4.77 | –
CC[C@@]1(O)C(=O)OCc2c1cc1n(c2=O)Cc2cc3cc(O)ccc3nc2-1 [P14, 10-hydroxy camptothecin, reference compound] | 11.6 | 6.79 | –
CC[C@@]1(O)C(=O)OCc2c1cc1n(c2=O)Cc2c-1nc1cc(F)c(C)c3c1c2[C@@H](NC(=O)OCc1ccc(NC(=O)[C@H](CCCNC(N)=O)NC(=O)[C@@H](NC(=O)CCOCCOCCOCCOCCNC(=O)CCC(=O)N2Cc4ccccc4C#Cc4ccccc42)C(C)C)cc1)CC3 [LP2] | – | – | EC50 [1]: 145 nM
CC[C@@]1(O)C(=O)OCc2c1cc1n(c2=O)Cc2c-1nc1cc(F)c(C)c3c1c2[C@@H](NCCS(C)(=O)=O)CC3 [P7, (10S,23S)-10-ethyl-18-fluoro-10-hydroxy-23-[(2-methanesulfonylethyl)amino]-19-methyl-8-oxa-4,15-diazahexacyclo[[14.7.1.0^2,^14.0^4,^13.0^6,^11.0^20,^24]]tetracosa-1,6(11),12,14,16,18,20(24)-heptaene-5,9-dione] | 5.58 | 1.69 | –
CC[C@@]1(O)C(=O)OCc2c1cc1n(c2=O)Cc2c-1nc1ccccc1c2CCN(CCO)C(C)C [P10, (19S)-19-ethyl-19-hydroxy-10-{2-[(2-hydroxyethyl)(propan-2-yl)amino]ethyl}-17-oxa-3,13-diazapentacyclo[11.8.0.0^2,^11.0^4,^9.0^15,^20]henicosa-1(21),2,4,6,8,10,15(20)-heptaene-14,18-dione] | 8.6 | 4.38 | –
CC[C@@]1(O)C(=O)OCc2c1cc1n(c2=O)Cc2c-1nc1ccccc1c2CCNC(C)C [P8, Belotecan HCl salt, reference compound] | – | 3.09 | EC50 (payload, HCT-15 cells, no verapamil, read-out: HCT-15 EC50): 20 nM
CC[C@@]1(O)C(=O)OCc2c1cc1n(c2=O)Cc2c-1nc1cc(F)c(C)c3c1c2[C@@H](NC(=O)CO)CC3 [P12, Dxd, reference compound] | 7.99 | – | EC50 (Homo sapiens, payload, HCT-15 cells plus verapamil, read-out: HCT-15 + verapamil EC50): 4.18 nM
CC[C@@]1(O)C(=O)OCc2c1cc1n(c2=O)Cc2c-1nc1cc(F)c(C)c3c1c2[C@@H](N)CC3 [P1, Exatecan mesylate, reference compound] | 1.22 | 1.13 | –
CC[C@@]1(O)C(=O)OCc2c1cc1n(c2=O)Cc2c-1nc1cc(F)c(C)c3c1c2[C@@H](NC(=O)OCc1ccc(O[C@@H]2O[C@H](C(=O)O)[C@@H](O)[C@H](O)[C@H]2O)c(C(=O)NCCNC(=O)COC2C#CCCCCC2)c1)CC3 (stereo partly drawn) [LP3, (2S,3S,4S,5R,6S)-6-[2-({2-[2-(Cyclooct-2-yn-1-yloxy)acetamido]ethyl}carbamoyl)-4-[({[(10S,23S)-10-ethyl-18-fluoro-10-hydroxy-19-methyl-5,9-dioxo-8-oxa-4,15-diazahexacyclo[14.7.1.0^2,^14.0^4,^13.0^6,^11.0^20,^24]tetracosa-1,6(11),12,14,16,18,20(24)-heptaen-23-yl]carbamoyl}oxy)methyl]phenoxy]-3,4,5-trihydroxyoxane-2-carboxylic acid] | – | – | EC50 [1]: 457 nM
CCc1c2c(nc3ccc(OC)cc13)-c1cc3c(c(=O)n1C2)COC(=O)[C@]3(O)CC [P17, (19S)-10,19-Diethyl-19-hydroxy-7-methoxy-17-oxa-3,13-diazapentacyclo[11.8.0.0^2,^11.0^4,^9.0^15,^20]henicosa-1(21),2,4,6,8,10,15(20)-heptaene-14,18-dione] | 1.59 | 1.44 | –
CC[C@@]1(O)C(=O)OCc2c1cc1n(c2=O)Cc2c-1nc1cc(F)c(C)c3c1c2[C@@H](NC(=O)[C@@H](N)Cc1ccccc1)CC3 [P5, (2S)-2-amino-N-[(10S,23S)-10-ethyl-18-fluoro-10-hydroxy-19-methyl-5,9-dioxo-8-oxa-4,15-diazahexacyclo[[14.7.1.0^2,^14.0^4,^13.0^6,^11.0^20,^24]]tetracosa-1,6(11),12,14,16,18,20(24)-heptaen-23-yl]-3-phenylpropanamide] | 48.2 | 4.2 | –
CC[C@@]1(O)C(=O)OCc2c1cc1n(c2=O)Cc2c-1nc1ccc(OC)cc1c2CNCc1ccccc1 [P26, (S)-11-((benzylamino)methyl)-4-ethyl-4-hydroxy-9-methoxy-1,12-dihydro-14H-pyrano[3′,4′:6,7]indolizino[1,2-b]quinoline-3,14(4H)-dione] | 51.9 | – | –
CC[C@@]1(O)C(=O)OCc2c1cc1n(c2=O)Cc2c-1nc1cc(F)c(C)c3c1c2[C@@H](NC(=O)OCc1ccc(NC(=O)[C@H](CCCNC(N)=O)NC(=O)[C@@H](NC(=O)CCOCCOCCOCCOCCNC(=O)COC2C#CCCCCC2)C(C)C)cc1)CC3 (stereo partly drawn) [LP1, {4-[(2S)-5-(Carbamoylamino)-2-[(2S)-2-{1-[2-(cyclooct-2-yn-1-yloxy)acetamido]-3,6,9,12-tetraoxapentadecan-15-amido}-3-methylbutanamido]pentanamido]phenyl}methyl N-[(10S,23S)-10-ethyl-18-fluoro-10-hydroxy-19-methyl-5,9-dioxo-8-oxa-4,15-diazahexacyclo[14.7.1.0^2,^14.0^4,^13.0^6,^11.0^20,^24]tetracosa-1,6(11),12,14,16,18,20(24)-heptaen-23-yl]carbamate] | – | – | EC50 [1]: 289 nM
CCc1c2c(nc3ccc(OC)cc13)-c1cc([C@@](O)(CC)C(=O)NCCN)c(COC(C)=O)c(=O)n1C2 [P18, {7-[(1 S)-1-[(2-Aminoethyl)carbamoyl]-1-hydroxypropyl]-12-ethyl-2-methoxy-9-oxo-9H,11H-indolizino[1,2-b]quinolin-8-yl}methyl acetate] | 32.5 | 32.8 | –
CC[C@@]1(O)C(=O)OCc2c1cc1n(c2=O)Cc2c-1nc1cc(F)c(C)c3c1c2[C@@H](NC(=O)COCNC(=O)OCc1ccc(NC(=O)[C@H](C)NC(=O)[C@@H](NC(=O)CCOCCOCCOCCOCCNC(=O)COC2C#CCCCCC2)C(C)C)cc1)CC3 (stereo partly drawn) [LP15, {4-[(2S)-2-[(2S)-2-{1-[2-(cyclooct-2-yn-1-yloxy)acetamido]-3,6,9,12-tetraoxapentadecan-15-amido}-3-methylbutanamido]propanamido]phenyl}methyl N-[({[(10S,23S)-10-ethyl-18-fluoro-10-hydroxy-19-methyl-5,9-dioxo-8-oxa-4,15-diazahexacyclo[14.7.1.0^2,^14.0^4,^13.0^6,^11.0^20,^24]tetracosa-1,6(11),12,14,16,18,20(24)-heptaen-23-yl]carbamoyl}methoxy)methyl]carbamate] | – | – | EC50 [1]: 96.9 nM
CC[C@@]1(O)C(=O)OCc2c1cc1n(c2=O)Cc2c-1nc1ccccc1c2CCN(C(C)C)S(C)(=O)=O [P9, N-{2-[(19S)-19-ethyl-19-hydroxy-14,18-dioxo-17-oxa-3,13-diazapentacyclo[11.8.0.0^2,^11.0^4,^9.0^15,^20]henicosa-1(21),2,4,6,8,10,15(20)-heptaen-10-yl]ethyl}-N-(propan-2-yl)methanesulfonamide] | 8.89 | 3.03 | –
